Reference: patent EP0465913B1, “Diaminotrifluoromethylpyrimidine derivatives, process for their production and phospholipase A2 inhibitor containing them” (ISHIHARA SANGYO KAISHA, LTD., priority 1990, dated 1992)
Where a name gives a salt, the structure may show the parent alone. Read-outs that look alike come from different tables or passages of the source.

Assays:
[1] = Acute toxicity, intravenous injection (LD50); format: in vivo; details: mouse, in vivo, iv, ddy male mice, sodium salt, mortality over one week
Protocol: Administration route: Intravenous injection
Using ddy male mice (body weight: 25 - 30 g), each test group consisted of 5 mice. A test compound was dissolved in the form of a sodium salt in a physiological saline or in a 5% glucose aqueous solution, and intravenously injected in an amount of 0.1 ml/10 g body weight. After the injection, the mortality rate was obtained over one week, and the median lethal dose LD50 (mg/kg) was determined.

[2] = tested on: experimental acute pancreatitis model; test: Effects against acute pancreatitis (Test Example 8, closed duodenal loop method, lesion scores); format: in vivo, Crj-CD male rats; details: sodium salt, 6 hours after ventrotomy; for inhibition in vivo at 10 mg/kg: Rattus norvegicus, 10 mg/kg single intravenous injection
How it was run: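 Closed duodenal loop pancreatitis in male Crj-CD rats (n=3) under halothane/nitrous oxide; sodium-salt compounds given i.v. into tail vein by continuous infusion or bolus, controls untreated. At 6 h, four pancreatic lesions scored 0-3; inhibition % of total and hemorrhagic scores calculated versus control.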

[3] = molecular target: T1, Porcine pancreatic phospholipase A2 (Sus scrofa, UniProt P00592); test: Phospholipase A2 inhibitory activity, method A (egg yolk lecithin substrate); format: biochemical; details: 1,000 ppm, 37°C for 30 minutes, read-out: % inhibition of PLA2 (1,000 ppm)
T1 construct: purchased Boehringer Mannheim·Yamanouchi K.K. 161454·122416
How it was run: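 Egg yolk lecithin dispersed with glycerine, Triton X-100 and CaCl2 in 50 mM Tris-HCl pH7.5 was hydrolysed by enzyme (20 ng/ml solution) with compound, 37°C, 30 min. Released free fatty acid measured by ACS-ACOD method at 540 nm; apparent enzyme level read from a standard curve to give percent inhibition.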

[4] = tested on: experimental acute pancreatitis model; test: Effects against acute pancreatitis (Test Example 7, closed duodenal loop method, gross pathological examination); format: in vivo, Crj-CD male rats; design: key: -: No significant lesions; ±: Minimal; +: Light; ++: Moderate; +++: Marked; details: 40 mg per kg continuous intravenous injection, examination 3 hours after ventrotomy, individual rats
Protocol: Using Crj-CD male rats (for Compound No. 19, rats having a body weight of from 371 to 484 g were used, and for Compound No. 10, rats having a body weight of from 444 to 574 g were used), each test group consisted of 3 rats. An experimental acute pancreatitis model was prepared by a closed duodenal loop method under anesthesia with halothane (manufactured by Hoechst Japan) and nitrous oxide (manufactured by Sumitomo Seika K.K.) applied by means of a general inhalation anesthesia machine (Model EM-2 and halothane evaporator F-Model). Then, Compound No. 19 or Compound No. 10 was continuously intravenously injected into the tail vein in an amount of 50 mg per kg or 40 mg per kg, respectively, at a rate of 0.05 ml per minute by means of a pump (Technicon AA II Proportioning Pump III, manufactured by Technicon Instruments Corporation). No injection was made to a control group. Gross pathological examination was conducted upon expiration of 6 hours after the ventrotomy in the case of the test group to which Compound No. 19 was administered, or upon expiration of 3 hours after the ventrotomy in the case of the test group to which Compound No. 10 was administered. As a result, as shown in the following Table 12, the groups to which the compounds of the present invention were administered, show distinct usefulness for treating acute pancreatitis.

[5] = read-out: Inhibition rate of hemorrhagic lesions (%)
[6] = read-out: Inhibition rate of pancreatitis lesions (%)
[7] = 20 mg/kg continuous intravenous injection

T1 sequence (P00592 23-146): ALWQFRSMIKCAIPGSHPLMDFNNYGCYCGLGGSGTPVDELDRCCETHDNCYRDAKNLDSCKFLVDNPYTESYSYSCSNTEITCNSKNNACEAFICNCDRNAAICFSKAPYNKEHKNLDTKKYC

Compound: Cc1cccc(C(=O)Nc2cc(C(F)(F)F)cnc2NS(C)(=O)=O)c1 [compound 78]
- LD50 at 168 h [1]: > 60 mg/kg
- inhibition in vivo at 10 mg/kg [2, 5]: 96%
- inhibition in vivo at 10 mg/kg [2, 6]: 91%

Compound: CS(=O)(=O)Nc1ncc(C(F)(F)F)cc1NC(=O)c1ccccc1 [compound 43]
- inhibition at 1000 ppm [3]: 47%
- LD50 at 168 h [1]: 78 mg/kg
- Inhibition rate of hemorrhagic lesions (%) [2, 7]: 81%

Compound: CS(=O)(=O)Nc1ncc(C(F)(F)F)cc1NC(=O)C(F)(F)C(F)(F)F [compound 13]
- inhibition at 1000 ppm [3]: 87%
- LD50 at 168 h [1]: > 70 mg/kg
- Inhibition rate of hemorrhagic lesions (%) ([2]; 23 mg/kg continuous intravenous injection): 100%

Compound: CS(=O)(=O)Nc1ncc(C(F)(F)F)cc1NC(=O)c1ccc(F)cc1 [Compound No. 10, N-(2-methylsulfonylamino-5-trifluoromethyl-3-pyridyl)-4-fluorobenzamide]
- inhibition at 1000 ppm [3]: 60%
- LD50 at 168 h [1]: 50 to 100 mg/kg
- Pancreatic hemorrhage Petechia Distribution [4]: -

Compound: CS(=O)(=O)Nc1ncc(C(F)(F)F)cc1NC(=O)c1ccc2c(c1)CCC2 [compound 87]
- LD50 at 168 h [1]: 75 mg/kg
- inhibition in vivo at 10 mg/kg [2, 5]: 83%
- inhibition in vivo at 10 mg/kg [2, 6]: 87%

Compound: CCS(=O)(=O)Nc1ncc(C(F)(F)F)cc1NC(=O)C1CCCC1 [compound 94]
- inhibition in vivo at 10 mg/kg [2, 5]: 11%
- inhibition in vivo at 10 mg/kg [2, 6]: 11%

Compound: CS(=O)(=O)Nc1ncc(C(F)(F)F)cc1NC(=O)C1CCCC1 [compound 45]
- inhibition at 1000 ppm [3]: 50%
- LD50 at 168 h [1]: 98 mg/kg
- Inhibition rate of hemorrhagic lesions (%) ([2]; 25 mg/kg continuous intravenous injection): 62%

Compound: CCS(=O)(=O)Nc1ncc(C(F)(F)F)cc1NC(=O)C1CCCCC1 [Compound No. 47, N-(2-ethylsulfonylamino-5-trifluoromethyl-3-pyridyl)cyclohexanecarboxamide]
- inhibition at 1000 ppm [3]: 75%
- LD50 at 168 h [1]: 58 mg/kg
- Inhibition rate of hemorrhagic lesions (%) [2, 7]: 68%

Compound: C/C=C/C(=O)Nc1cc(C(F)(F)F)cnc1NS(=O)(=O)CC [compound 93, N-(2-ethylsulfonylamino-5-trifluoromethyl-3-pyridyl)crotonamide]
- inhibition in vivo at 10 mg/kg [2, 5]: 70%
- inhibition in vivo at 10 mg/kg [2, 6]: 70%

Compound: CS(=O)(=O)Nc1ncc(C(F)(F)F)cc1NC(=O)c1cccc(Cl)c1 [compound 79]
- inhibition in vivo at 10 mg/kg [2, 5]: 23%
- inhibition in vivo at 10 mg/kg [2, 6]: 39%

Compound: CCS(=O)(=O)Nc1ncc(C(F)(F)F)cc1NC(=O)C1CCCCC1 [Compound No. 251, sodium salt of N-(2-ethylsulfonylamino-5-trifluoromethyl-3-pyridyl)cyclohexanecarboxamide]
- inhibition in vivo at 10 mg/kg [2, 5]: 79%
- inhibition in vivo at 10 mg/kg [2, 6]: 80%

Compound: CS(=O)(=O)Nc1ncc(C(F)(F)F)cc1NC(=O)c1cc2ccccc2s1 [compound 86]
- LD50 at 168 h [1]: > 40 mg/kg
- inhibition in vivo at 10 mg/kg [2, 5]: 87%
- inhibition in vivo at 10 mg/kg [2, 6]: 85%
